Assay [1] addresses Calcium/calmodulin-dependent protein kinase type II subunit gamma (Homo sapiens) (UniProt Q13555). As to the kind of experiment: Inhibition of CAMK2G in human NCI-H929 cells at 10 uM by mass spectroscopic analysis relative to control. Type of assay: cell-based.
Assay [2] has as its target Casein kinase I isoform alpha (Homo sapiens) (UniProt P48729). As to the kind of experiment: Inhibition of CK1a in human NCI-H929 cells at 10 uM by mass spectroscopic analysis relative to control. The class given is cell-based.
Assay [3] deals with Casein kinase I isoform gamma-3 (Homo sapiens) (UniProt Q9Y6M4). As to the kind of experiment: Inhibition of CK1g3 in human NCI-H929 cells at 10 uM by mass spectroscopic analysis relative to control. The class given is cell-based.
Sequence of Casein kinase I isoform gamma-3 (Homo sapiens) (Q9Y6M4 whole entry, looked up, the tested form may be a part, canonical isoform): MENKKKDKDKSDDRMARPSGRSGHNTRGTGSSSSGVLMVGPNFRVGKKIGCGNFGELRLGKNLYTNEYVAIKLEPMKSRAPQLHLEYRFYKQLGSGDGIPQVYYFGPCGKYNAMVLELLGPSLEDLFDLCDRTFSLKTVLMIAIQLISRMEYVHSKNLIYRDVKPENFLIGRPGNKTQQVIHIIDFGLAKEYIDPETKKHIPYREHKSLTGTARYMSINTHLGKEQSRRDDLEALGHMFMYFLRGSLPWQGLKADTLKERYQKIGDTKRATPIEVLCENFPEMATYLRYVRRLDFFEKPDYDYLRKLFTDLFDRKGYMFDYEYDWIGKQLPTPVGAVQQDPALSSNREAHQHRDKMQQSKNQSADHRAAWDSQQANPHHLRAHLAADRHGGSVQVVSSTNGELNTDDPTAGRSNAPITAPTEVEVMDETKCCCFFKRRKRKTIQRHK
Assay [4] concerns the target eIF-2-alpha kinase GCN2 (Homo sapiens) (UniProt Q9P2K8). As to the kind of experiment: Inhibition of GCN2 domain 2 in human NCI-H929 cells at 10 uM by mass spectroscopic analysis relative to control. Type of assay: cell-based.
For assay [5], the target named is Scaffold protein ILK (Homo sapiens) (UniProt Q13418). The assay can be described thus: Inhibition of ILK in human NCI-H929 cells at 10 uM by mass spectroscopic analysis relative to control. The class given is cell-based.
Sequence of Scaffold protein ILK (Homo sapiens) (Q13418 whole entry): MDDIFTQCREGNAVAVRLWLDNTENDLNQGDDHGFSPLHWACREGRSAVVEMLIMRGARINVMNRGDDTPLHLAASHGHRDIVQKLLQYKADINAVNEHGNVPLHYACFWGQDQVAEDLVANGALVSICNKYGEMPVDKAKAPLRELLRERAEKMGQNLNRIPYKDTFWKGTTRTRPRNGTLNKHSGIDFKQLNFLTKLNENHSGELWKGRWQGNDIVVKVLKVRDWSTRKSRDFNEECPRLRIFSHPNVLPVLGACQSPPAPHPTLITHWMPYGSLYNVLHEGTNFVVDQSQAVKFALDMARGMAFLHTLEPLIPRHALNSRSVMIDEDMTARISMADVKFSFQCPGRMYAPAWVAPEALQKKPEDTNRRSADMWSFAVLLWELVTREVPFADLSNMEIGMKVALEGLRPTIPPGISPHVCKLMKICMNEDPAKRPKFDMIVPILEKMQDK
The target of assay [6] is Serine/threonine-protein kinase STK11 (Homo sapiens) (UniProt Q15831). The assay can be described thus: Inhibition of LKB1 in human NCI-H929 cells at 10 uM by mass spectroscopic analysis relative to control. The class given is cell-based.
Sequence of Serine/threonine-protein kinase STK11 (Homo sapiens) (Q15831 whole entry): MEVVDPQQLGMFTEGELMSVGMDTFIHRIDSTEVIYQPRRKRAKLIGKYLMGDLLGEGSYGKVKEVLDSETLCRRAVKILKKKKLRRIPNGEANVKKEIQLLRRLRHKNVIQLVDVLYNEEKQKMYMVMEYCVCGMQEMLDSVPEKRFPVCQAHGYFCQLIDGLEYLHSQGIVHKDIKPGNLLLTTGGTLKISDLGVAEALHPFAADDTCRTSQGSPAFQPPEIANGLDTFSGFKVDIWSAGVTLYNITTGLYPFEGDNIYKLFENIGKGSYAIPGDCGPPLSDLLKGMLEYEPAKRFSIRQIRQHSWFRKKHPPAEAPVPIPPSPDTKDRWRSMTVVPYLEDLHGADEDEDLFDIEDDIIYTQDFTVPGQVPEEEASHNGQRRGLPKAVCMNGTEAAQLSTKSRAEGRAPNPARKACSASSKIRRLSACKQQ
Assay [7] addresses Dual specificity mitogen-activated protein kinase kinase 4 (Homo sapiens) (UniProt P45985). The assay can be described thus: Inhibition of MAP2K4 in human NCI-H929 cells at 10 uM by mass spectroscopic analysis relative to control. The class given is cell-based.
Assay [8] addresses Dual specificity mitogen-activated protein kinase kinase 7 (Homo sapiens) (UniProt O14733). As to the kind of experiment: Inhibition of MAP2K7 in human NCI-H929 cells at 10 uM by mass spectroscopic analysis relative to control. The class given is cell-based.
Assay [9] addresses Mitogen-activated protein kinase kinase kinase 1 (Homo sapiens) (UniProt Q13233). The assay can be described thus: Inhibition of MAP3K1 in human NCI-H929 cells at 10 uM by mass spectroscopic analysis relative to control. Type of assay: cell-based.
In assay [10] the target is Mitogen-activated protein kinase kinase kinase 11 (Homo sapiens) (UniProt Q16584). The assay can be described thus: Inhibition of MLK3 in human NCI-H929 cells at 10 uM by mass spectroscopic analysis relative to control. The class given is cell-based.
Sequence of Mitogen-activated protein kinase kinase kinase 11 (Homo sapiens) (Q16584 whole entry, looked up, the tested form may be a part): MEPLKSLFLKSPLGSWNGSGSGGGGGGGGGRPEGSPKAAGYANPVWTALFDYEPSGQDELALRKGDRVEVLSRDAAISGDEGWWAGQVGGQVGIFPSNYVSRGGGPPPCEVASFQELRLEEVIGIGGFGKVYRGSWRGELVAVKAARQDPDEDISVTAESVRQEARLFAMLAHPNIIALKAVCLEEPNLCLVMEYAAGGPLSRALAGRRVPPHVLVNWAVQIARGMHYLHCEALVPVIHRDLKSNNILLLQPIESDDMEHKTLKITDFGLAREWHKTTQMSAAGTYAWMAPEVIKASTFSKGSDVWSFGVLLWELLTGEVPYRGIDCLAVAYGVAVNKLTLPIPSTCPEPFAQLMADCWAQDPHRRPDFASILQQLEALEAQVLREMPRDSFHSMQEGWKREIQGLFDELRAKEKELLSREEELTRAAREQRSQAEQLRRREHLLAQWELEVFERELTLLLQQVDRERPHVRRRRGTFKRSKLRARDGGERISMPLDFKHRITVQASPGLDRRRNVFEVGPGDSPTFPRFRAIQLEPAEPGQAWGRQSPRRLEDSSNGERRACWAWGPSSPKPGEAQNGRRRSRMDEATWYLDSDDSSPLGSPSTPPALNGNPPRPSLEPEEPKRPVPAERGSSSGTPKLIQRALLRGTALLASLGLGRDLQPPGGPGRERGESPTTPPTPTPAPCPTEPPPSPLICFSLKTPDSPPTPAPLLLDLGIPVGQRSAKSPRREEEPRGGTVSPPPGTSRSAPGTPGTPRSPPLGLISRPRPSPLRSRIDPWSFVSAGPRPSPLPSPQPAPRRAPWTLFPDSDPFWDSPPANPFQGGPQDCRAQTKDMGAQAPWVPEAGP
Assay [11] has as its target Ribosomal protein S6 kinase alpha-4 (Homo sapiens) (UniProt O75676). As to the kind of experiment: Inhibition of MSK2 domain 1 in human NCI-H929 cells at 10 uM by mass spectroscopic analysis relative to control. Type of assay: cell-based.
Assay [12] deals with T1, Serine/threonine-protein kinase 4 (Homo sapiens) (UniProt Q13043).
T1 sequence (whole entry): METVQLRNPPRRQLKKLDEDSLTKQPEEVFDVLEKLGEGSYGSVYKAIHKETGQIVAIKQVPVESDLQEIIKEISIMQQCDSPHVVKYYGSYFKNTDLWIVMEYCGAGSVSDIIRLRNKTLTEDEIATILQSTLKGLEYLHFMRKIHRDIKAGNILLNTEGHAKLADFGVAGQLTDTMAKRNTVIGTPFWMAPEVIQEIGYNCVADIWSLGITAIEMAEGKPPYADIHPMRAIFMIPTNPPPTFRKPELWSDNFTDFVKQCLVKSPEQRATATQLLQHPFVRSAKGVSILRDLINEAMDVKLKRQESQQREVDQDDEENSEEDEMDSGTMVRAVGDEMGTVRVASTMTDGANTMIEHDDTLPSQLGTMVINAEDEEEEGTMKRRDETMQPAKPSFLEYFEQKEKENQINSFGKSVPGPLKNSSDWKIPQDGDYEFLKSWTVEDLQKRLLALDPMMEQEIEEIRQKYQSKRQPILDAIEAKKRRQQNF
As to the kind of experiment: Inhibition of MST1 in human NCI-H929 cells at 10 uM by mass spectroscopic analysis relative to control. The class given is cell-based.

For assay [13], the target named is Serine/threonine-protein kinase Nek9 (Homo sapiens) (UniProt Q8TD19). As to the kind of experiment: Inhibition of NEK9 in human NCI-H929 cells at 10 uM by mass spectroscopic analysis relative to control. The class given is cell-based.
Assay [14] addresses Phosphatidylinositol 5-phosphate 4-kinase type-2 alpha (Homo sapiens) (UniProt P48426). The assay can be described thus: Inhibition of PIP4K2A in human NCI-H929 cells at 10 uM by mass spectroscopic analysis relative to control. Type of assay: cell-based.
Assay [15] deals with Phosphatidylinositol 5-phosphate 4-kinase type-2 gamma (Homo sapiens) (UniProt Q8TBX8). The assay can be described thus: Inhibition of PIP4K2C in human NCI-H929 cells at 10 uM by mass spectroscopic analysis relative to control. Type of assay: cell-based.
Assay [16] has as its target Protein kinase C zeta type (Homo sapiens) (UniProt Q05513). The assay can be described thus: Inhibition of PKCz in human NCI-H929 cells at 10 uM by mass spectroscopic analysis relative to control. The class given is cell-based.
For assay [17], the target named is Cyclin-G-associated kinase (Homo sapiens) (UniProt O14976). As to the kind of experiment: Inhibition of GAK in human NCI-H929 cells at 10 uM by mass spectroscopic analysis relative to control. The class given is cell-based.
For assay [18], the target named is Mitogen-activated protein kinase 1 (Homo sapiens) (UniProt P28482). As to the kind of experiment: Inhibition of ERK2 in human NCI-H929 cells at 10 uM by mass spectroscopic analysis relative to control. The class given is cell-based.
Assay [19] has as its system MM1.S. The assay can be described thus: Induction of apoptosis in human MM1.S cells assessed as late apoptotic cells measured after 48 hrs by annevxinV/FITC-propidium iodide staining based flow cytometry (reference value: 2.09 %). The class given is functional.
For assay [20], the system named is MM1.S. As to the kind of experiment: Induction of apoptosis in human MM1.S cells assessed as necrotic cells measured after 48 hrs by annevxinV/FITC-propidium iodide staining based flow cytometry (reference value: 0.19 %). The class given is functional. For orientation: In flow cytometry, cells or beads pass a laser one at a time.
Assay [21] deals with NCI-H929. As to the kind of experiment: Upregulation of YAP1 protein level in human NCI-H929 cells at 1 uM measured after 24 hrs by Western blot analysis. The class given is functional, cell-based.
For assay [22], the system named is NCI-H929. As to the kind of experiment: Upregulation of PUMA protein level in human NCI-H929 cells at 1 uM measured after 24 hrs by Western blot analysis. Type of assay: functional, cell-based. Background: In western blotting, separated proteins are transferred to a membrane and probed.
Assay [23] concerns NCI-H929. As to the kind of experiment: Upregulation of YAP1 protein level in human NCI-H929 cells at 3 to 10 uM measured after 72 hrs by Western blot analysis. Type of assay: functional, cell-based. Particulars: dose 3-10 µM.
Assay [24] deals with MM1.S. The assay can be described thus: Upregulation of YAP1 protein level in human MM1.S cells at 3 to 10 uM measured after 72 hrs by Western blot analysis. The note with it: dose 3-10 µM. Type of assay: functional, cell-based.
Assay [25] has as its target Ribosomal protein S6 kinase alpha-3 (Homo sapiens) (UniProt P51812). The assay can be described thus: Inhibition of RSK2 domain 1 in human NCI-H929 cells at 10 uM by mass spectroscopic analysis relative to control. The class given is cell-based.
In assay [26] the target is Maternal embryonic leucine zipper kinase (Homo sapiens) (UniProt Q14680). The assay can be described thus: Inhibition of MELK in human NCI-H929 cells at 10 uM by mass spectroscopic analysis relative to control. Type of assay: cell-based.
Assay [27] concerns the target Mitogen-activated protein kinase kinase kinase kinase 3 (Homo sapiens) (UniProt Q8IVH8). The assay can be described thus: Inhibition of KHS2 in human NCI-H929 cells at 10 uM by mass spectroscopic analysis relative to control. Type of assay: cell-based.

Experimental findings from ChEMBL document CHEMBL4804281, “STK4 inhibitors for treatment of hematologic malignancies” (2020) are described below.

The term inhibition denotes the relative decrease from the control value, in per cent.

The source made the active and inactive calls. The rule behind the calls is not given here.

Sequence of eIF-2-alpha kinase GCN2 (Homo sapiens) (Q9P2K8 whole entry, the tested form may be a part): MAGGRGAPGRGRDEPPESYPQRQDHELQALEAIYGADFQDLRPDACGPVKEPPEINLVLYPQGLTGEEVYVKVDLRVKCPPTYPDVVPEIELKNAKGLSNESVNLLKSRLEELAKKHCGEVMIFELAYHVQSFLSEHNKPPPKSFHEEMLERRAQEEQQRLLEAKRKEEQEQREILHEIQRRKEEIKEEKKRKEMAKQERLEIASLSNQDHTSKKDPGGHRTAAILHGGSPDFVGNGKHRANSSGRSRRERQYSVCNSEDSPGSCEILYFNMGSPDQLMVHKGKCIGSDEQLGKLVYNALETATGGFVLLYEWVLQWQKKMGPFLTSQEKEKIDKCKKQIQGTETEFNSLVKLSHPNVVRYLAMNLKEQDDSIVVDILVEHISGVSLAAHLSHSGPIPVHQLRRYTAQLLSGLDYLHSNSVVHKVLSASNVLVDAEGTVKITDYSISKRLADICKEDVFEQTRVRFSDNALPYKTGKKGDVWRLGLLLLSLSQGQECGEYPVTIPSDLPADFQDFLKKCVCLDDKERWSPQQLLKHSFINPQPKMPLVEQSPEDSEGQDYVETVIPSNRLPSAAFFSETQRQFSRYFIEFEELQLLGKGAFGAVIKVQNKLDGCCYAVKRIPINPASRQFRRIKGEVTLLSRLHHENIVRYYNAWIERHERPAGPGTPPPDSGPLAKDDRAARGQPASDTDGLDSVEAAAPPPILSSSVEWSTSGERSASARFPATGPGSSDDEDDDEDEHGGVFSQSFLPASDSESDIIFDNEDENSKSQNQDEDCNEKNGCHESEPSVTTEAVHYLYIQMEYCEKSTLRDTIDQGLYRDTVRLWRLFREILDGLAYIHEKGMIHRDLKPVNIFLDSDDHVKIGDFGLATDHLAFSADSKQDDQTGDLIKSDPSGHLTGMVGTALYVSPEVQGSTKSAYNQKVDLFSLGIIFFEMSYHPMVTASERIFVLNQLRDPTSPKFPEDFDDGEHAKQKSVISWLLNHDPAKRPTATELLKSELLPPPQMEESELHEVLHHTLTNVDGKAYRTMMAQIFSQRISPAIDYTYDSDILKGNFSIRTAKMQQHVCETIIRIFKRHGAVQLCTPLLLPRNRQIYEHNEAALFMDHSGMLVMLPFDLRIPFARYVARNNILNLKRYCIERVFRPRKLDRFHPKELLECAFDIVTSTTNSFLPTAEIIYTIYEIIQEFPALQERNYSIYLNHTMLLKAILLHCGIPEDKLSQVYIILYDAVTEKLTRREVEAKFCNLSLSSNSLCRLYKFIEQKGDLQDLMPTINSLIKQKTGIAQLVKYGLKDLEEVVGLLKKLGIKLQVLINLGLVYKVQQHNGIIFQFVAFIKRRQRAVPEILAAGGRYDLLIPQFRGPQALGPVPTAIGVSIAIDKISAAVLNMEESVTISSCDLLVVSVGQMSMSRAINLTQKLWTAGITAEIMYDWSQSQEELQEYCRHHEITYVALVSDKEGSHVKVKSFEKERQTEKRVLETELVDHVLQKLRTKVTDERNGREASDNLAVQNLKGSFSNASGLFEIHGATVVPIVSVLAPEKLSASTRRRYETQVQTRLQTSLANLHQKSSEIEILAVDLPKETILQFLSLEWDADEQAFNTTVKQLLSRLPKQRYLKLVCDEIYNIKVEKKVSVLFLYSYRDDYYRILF
Sequence of Dual specificity mitogen-activated protein kinase kinase 7 (Homo sapiens) (O14733 whole entry): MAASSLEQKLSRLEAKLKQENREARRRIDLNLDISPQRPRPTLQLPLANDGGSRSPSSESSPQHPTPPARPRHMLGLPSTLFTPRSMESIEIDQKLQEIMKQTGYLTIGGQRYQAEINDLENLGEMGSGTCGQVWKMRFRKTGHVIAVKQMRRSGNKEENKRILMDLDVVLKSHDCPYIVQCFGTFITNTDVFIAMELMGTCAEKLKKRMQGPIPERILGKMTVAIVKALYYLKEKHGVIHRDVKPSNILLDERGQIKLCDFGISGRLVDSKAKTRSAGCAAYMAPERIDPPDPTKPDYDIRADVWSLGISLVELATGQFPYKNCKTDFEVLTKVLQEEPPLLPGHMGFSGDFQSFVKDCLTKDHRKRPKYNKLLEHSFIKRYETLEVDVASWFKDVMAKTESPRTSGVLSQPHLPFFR
Sequence of Ribosomal protein S6 kinase alpha-3 (Homo sapiens) (P51812 whole entry, the tested form may be a part): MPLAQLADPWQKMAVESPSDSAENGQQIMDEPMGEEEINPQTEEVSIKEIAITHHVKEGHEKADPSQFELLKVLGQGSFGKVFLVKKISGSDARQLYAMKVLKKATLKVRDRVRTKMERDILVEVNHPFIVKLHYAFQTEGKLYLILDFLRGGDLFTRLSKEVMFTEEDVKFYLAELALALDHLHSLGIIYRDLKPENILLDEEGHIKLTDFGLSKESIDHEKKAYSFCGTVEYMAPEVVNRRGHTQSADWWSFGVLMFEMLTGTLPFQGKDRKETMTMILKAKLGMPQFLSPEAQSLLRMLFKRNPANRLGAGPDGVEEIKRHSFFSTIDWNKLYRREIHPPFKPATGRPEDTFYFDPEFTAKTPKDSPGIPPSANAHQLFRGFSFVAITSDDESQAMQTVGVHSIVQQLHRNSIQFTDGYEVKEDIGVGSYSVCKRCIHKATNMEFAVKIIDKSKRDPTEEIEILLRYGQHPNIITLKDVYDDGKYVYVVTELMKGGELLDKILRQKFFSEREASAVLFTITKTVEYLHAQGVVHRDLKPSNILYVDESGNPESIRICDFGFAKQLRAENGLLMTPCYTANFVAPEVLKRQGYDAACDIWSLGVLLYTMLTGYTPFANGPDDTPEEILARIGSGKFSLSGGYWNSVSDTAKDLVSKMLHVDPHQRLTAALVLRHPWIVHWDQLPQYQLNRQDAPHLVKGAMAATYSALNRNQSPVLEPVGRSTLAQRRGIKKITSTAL

Consider `COc1cc(NS(=O)(=O)C2CC2)ccc1-c1cnc(N)c(-c2ccc3c(c2)CCNC3=O)c1`, for which the inhibition in assay [1] is 75%; in assay [2], 75%; in assay [3], 0%; in [4], 75%; in [5], 50%; in assay [6], > 90%. In addition, the inhibition was 0% in assay [7]; 75% in assay [8]; 0% in assay [9]; 0% in assay [10]; > 90% in assay [11]; 0% in assay [12]. The inhibition was 50% in [13]; > 90% in assay [14]; 75% in [15]; 50% in [16]; 50% in [17].

`Nc1ncc(-c2cccc3ncsc23)cc1-c1ccc2c(c1)CCNC2=O` yielded an inhibition in assay [18] of 50%.

In the case of `Nc1ncc(-c2cccc([N+](=O)[O-])c2F)cc1-c1ccc2c(c1)CCNC2=O`, the results for the Activity with MM1.S [19] and in the assay on MM1.S [20] were 25.05% and 29.41%, respectively. Further, the outcome in the assay on NCI-H929 [21] and in the assay on NCI-H929 [22] was Active. For the same compound, the outcome with NCI-H929 [23] and with MM1.S [24] was inactive.

With `Nc1ncc(-c2ccc(NS(=O)(=O)C3CC3)cc2OC2CCCCC2)cc1-c1ccc2c(c1)CCNC2=O`, the inhibition in assay [25] and in [26] was 50% throughout.

For the compound `CN(C1CC1)S(=O)(=O)c1ccc(-c2cnc(N)c(-c3ccc4c(c3)CCNC4=O)c2)c(F)c1`, in assay [27], the inhibition amounted to 50%.
